Where two headings read alike, the source gives them in different places.

Assay type in all cases: cell-based, mice
Data set [1] concerns hTNF-activated wt SFs. Briefly: CCL5 and CCL20 ELISA on hTNF-activated wild type synovial fibroblasts. As to conditions: for CCL5 WT, percentage of level in untreated cells / CCL20 WT, percentage of level in untreated cells: 48 h; for IC50: Mus musculus, Fibroblast. The source says:
(§1) Primary SFs were derived from a) human TNF transgenic (hTNFTg) mice (Keffer et al., 1991) as well as from b) CBA/C57BL6 wild type mice.
By testing the compounds in a) and b) we accessed their effect on the activated SFs phenotype caused by both the endogenous hTNF upregulation and the exogenous hTNF administration. In this way it was confirm the ability of the compounds of the invention to act in the TNF pathway directly downstream of TNF.
(§2) SFs were isolated as previously described by Armaka et al., 2009, from the ankle joints of hTNFtg or CBA/C57BL6 wild type (wt) littermates. Briefly, ankle joints were digested with Collagenase IV (Sigma Aldrich, C5138) for 45 minutes at a 37° C. shaking waterbath and after 5 days in culture at 37° C. and 5% CO2, a depletion of CD45+ lineage cells was performed using a Biotin anti-mouse CD45 Antibody (Biolegend, 103104) and Dynabeads™ Biotin Binder (ThermoFisher 11047), according to the manufacturer's protocol. After 10 days in culture, SFs were seeded overnight (O/N) at a concentration of 2×10^4 cells/well in a 96 well plate in 1×DMEM, supplemented with 100 U/ml Penicillin Streptomycin (P/S) and 10% Fetal Bovine Serum (FBS). The next day the cells were synchronized by starvation that included their O/N plating in low serum medium (0.5% FBS). Following the O/N starvation, the hTNFg and the WT SFs were treated with different concentrations of the experimental compounds. The SFs were at the same time activated with 10 ng/ml hTNF (Peprotech, 300-01A). 48 h following the treatment the cell culture supernatants were collected and analyzed by ELISA (R&S Systems, Duoset, DY478 and DY760) according to the manufacturer's protocol, for the detection of CCL5/Rantes and CCL20/Mip3, two known inflammatory chemokines. The IC50 values were determined as the concentration of the compounds required to reduce the levels of secreted CCL5 and CCL20 by 50%.
In order to determine the efficiency of the compounds of the invention, the same protocol was repeated with some minor modifications. Mainly, the concentration of hTNF was 10-fold reduced, i.e., adjusted to 1 ng/ml, and the SFs were seeded overnight at a concentration of 10^4 cells/well.
(§3) Table 7 summarizes the reduction of CCL5 and CCL20 levels achieved with the test compounds of the invention. Data are presented as percentages of the chemokine levels detected in treated cells compared to 100% levels of the chemokines detected in the untreated cells.
(§4) Table 8 summarizes the values of IC50 and toxicity for the test compounds of the invention. Dose response curves regarding the WT SFs were produced with 10 ng/ml hTNF stimulation for all compounds, with the exception of the compounds E and F, where WT cells were induced using hTNF at 1 ng/ml: […]
In general terms: In an ELISA, binding on a coated surface is turned into a signal by an enzyme label.

In data set [2] the test system is hTNFtg SFs. Briefly: CCL5 and CCL20 ELISA on hTNFtg synovial fibroblasts. The note with it: Mus musculus, Fibroblast; for activity at 10 µM: compound 10 μM; for activity at 10 µM / activity at 50 µM / activity at 25 µM: 48 h; for activity at 50 µM: compound 50 μM; for activity at 25 µM: compound 25 μM. As for the experimental part: as §1
hTNFtg mice overexpress human TNF, resulting in the spontaneous development of arthritis.
as §2, §3, §4

Data set [3] concerns hTNFtg SFs. Briefly: Legendplex pro-inflammatory chemokine panel on hTNFTg synovial fibroblasts. As to conditions: compound 10 μM. As for the experimental part: as §2
(§5) The supernatants of the SFs were also analyzed using the Mouse pro-inflammatory chemokine panel from Legendplex™ (Biolegend, 740007), according to manufacturer's instructions, for the simultaneous detection of 13 Mouse chemokines.
(§6) The anti-inflammatory potential of the test compounds 51, 52, 53, E and F on SFs was also assessed using the Mouse pro-inflammatory chemokine panel from Legendplex that allows the simultaneous detection of 13 Mouse chemokines. The effect of compound 51 on SFs was assessed at a dose of 25 μM, while the effect of the test compounds 52, 53, E and F was assessed at a dose of 10 μM. Numbers represent percentages of the chemokine levels secreted from the treated SFs compared to 100% levels of the chemokines detected in the untreated cells (i.e. either hTNFTg SFs or hTNF-activated wt SFs).
(§7) Table 9 summarizes the effect of the test compounds 51, 52 and 53, E and F on the inflammatory chemokines secreted from activated SFs. WT SFs were stimulated with 10 ng/ml hTNF.

Another data set concerns SFs and PMCs. In words: Compound cytotoxicity, Crystal Violet assay. The method, then:
The toxicity of the test compounds was assessed at several concentrations using the Crystal Violet assay on both SFs and PMCs. Adherent viable cells were Methanol fixed and stained with Crystal Violet. Optical density was quantified at […], as described in Feoktistova et al., 2016.

For data set [4], the system named is hTNFtg SFs. Briefly: Wound healing assay on activated SFs. As to conditions: compound 10 μM, 24 h. As for the experimental part:
Activated SFs were isolated from hTNFtg mice as described above and they were seeded in 24 well plates at a concentration of 2×10^5 cells/well. The next day a straight-line wound was created on the formed cell monolayer using the tip of a 200 μl pipette. Images of the wounds were captured by microscope at a magnification of 4× at two time points. Time point 0 (i.e. the time of the creation of the wound) as well as 24 h later (t=24 h). The area of the wound was measured at each time point using the software ImageJ.
The percent closure of the wound was calculated using the following formula: [(wound area at t0−wound area at t24)/wound area at t0]*100
The assay for each compound was repeated four times.
The inventors wanted to further explore the potential of the test compounds to reduce the activated phenotype of the arthritogenic SFs and studied their effect on a wound healing assay. In this assay a wound is formed on a monolayer of SFs and the rate of closure of this wound is indicative of the proliferation and migration capacity of the SFs, i.e. the slower the closure of the wound, the less proliferative and migratory are the SFs.
The potential ability of the compounds 53, E and F to inhibit the proliferation and migration of activated SFs, was assessed at a concentration of 10 μM and the wound healing assay was performed using hTNFtg SFs, as these cells show increased proliferation and migration potential (Vasilopoulos et al., 2007). The data shown in Table 10 where the percentages of wound closure area are presented in hTNFtg untreated as well as compound treated cells.

For data set [5], the system named is hTNF-activated wt SFs. In words: Legendplex pro-inflammatory chemokine panel on hTNF-activated wt synovial fibroblasts. As to conditions: compound 10 μM; 10 ng/ml hTNF. As for the experimental part: as §2, §5, §6, §7
[6] abbreviates: read-out: CCL5 hTNFtg, percentage of level in untreated cells.
[7] abbreviates: read-out: CCL20 hTNFtg, percentage of level in untreated cells.
Setting [8] is: read-out: IC50 (μM) CCL5 hTNFtg.
Setting [9] is: read-out: IC50 (μM) CCL20 hTNFtg.

The IC50 is the concentration at which inhibition is half-maximal. Take `COc1cc(N)c(Cl)cc1C(=O)NCC1(Nc2ccc(Cl)cc2)CCCCCC1` [Compound 53, 4-amino-5-chloro-N-((1-((4-chlorophenyl)amino)cycloheptyl)methyl)-2-methoxybenzamide]: in the data set on hTNF-activated wt SFs [1] (1 ng/mL hTNF, compound 10 μM), the “CCL5 WT, percentage of level in untreated cells” value (“CCL5 WT, percentage of level” below) turned out to be 16% and the “CCL20 WT, percentage of level in untreated cells” value (from here on “CCL20 WT, percentage of level”) worked out at 26%. Further, in the data set with hTNF-activated wt SFs [1] (1 ng/mL hTNF, compound 50 μM), the “CCL5 WT, percentage of level” value was 8% and the “CCL20 WT, percentage of level” value was determined as 9%. In the data set on hTNF-activated wt SFs [1] (10 ng/mL hTNF, compound 10 μM), the “CCL5 WT, percentage of level” value was 35% and the “CCL20 WT, percentage of level” value was 15%. In addition, in the data set on hTNF-activated wt SFs [1] (10 ng/mL hTNF, compound 50 μM), the “CCL5 WT, percentage of level” value was found to be 26% and the “CCL20 WT, percentage of level” value stood at 8%. Besides, the IC50 in the data set on hTNF-activated wt SFs [1] (10 ng/ml hTNF stimulation, read-out: IC50 (μM) CCL5 WT) stood at 2.9 µM. In the data set on hTNF-activated wt SFs [1] (10 ng/ml hTNF stimulation, read-out: IC50 (μM) CCL20 WT), the IC50 was 2.3 µM. In addition, in the data set with hTNFtg SFs [2] (setting [6]), the activity at 10 µM stood at 40% and the activity at 50 µM amounted to 34%. For the same compound, in the data set on hTNFtg SFs [2] (setting [7]), the activity at 10 µM was found to be 22% and the activity at 50 µM came out at 22%. Also, the concentration for half-maximal inhibition (IC50) in the data set with hTNFtg SFs [2] (setting [8]) worked out at 2.3 µM. The IC50 with hTNFtg SFs [2] (setting [9]) amounted to 3.2 µM. Further, in the data set on hTNFtg SFs [3], the “EOTAXIN hTNFTg, percentage of level in untreated cells” value is 9%; the “KC hTNFTg, percentage of level in untreated cells” value is listed as 49%; the “LIX hTNFTg, percentage of level in untreated cells” value was found to be 40%; the “MCP1 hTNFTg, percentage of level in untreated cells” value was determined as 49.5%. Further, the “MIP1β hTNFTg, percentage of level in untreated cells” value in the data set with hTNFtg SFs [3] is reported as 33%. The “Cell Toxicity” value in the data set with SFs and PMCs is >100 µM. The “% of wound closure (mean ± SD)” value in the data set on hTNFtg SFs [4] was determined as 67.7 ± 16.2%. Besides, in the data set on hTNF-activated wt SFs [5], the “EOTAXIN WT, percentage of level in untreated cells” value came out at 59%; the “KC WT, percentage of level in untreated cells” value was 68%; the “LIX WT, percentage of level in untreated cells” value is given as 24%; the “MCP1 WT, percentage of level in untreated cells” value was 57%.

As for `COc1cc(N)c(Cl)cc1C(=O)NCC1(Nc2cccc(OC(F)(F)F)c2)CCCCCC1` [F, 4-amino-5-chloro-2-methoxy-N-((1-((3-(trifluoromethoxy)phenyl)amino)cycloheptyl)methyl)benzamide], the “CCL5 WT, percentage of level” value in the data set on hTNF-activated wt SFs [1] (1 ng/mL hTNF, compound 10 μM) stood at 0%; in the data set on hTNF-activated wt SFs [1] (1 ng/mL hTNF, compound 25 μM), 0%; in the data set with hTNF-activated wt SFs [1] (10 ng/mL hTNF, compound 10 μM) it was 12%; in the data set on hTNF-activated wt SFs [1] (10 ng/mL hTNF, compound 25 μM), 9%. The “CCL20 WT, percentage of level” value was found to be 7% in the data set with hTNF-activated wt SFs [1] (1 ng/mL hTNF, compound 25 μM) and 10% in the data set with hTNF-activated wt SFs [1] (10 ng/mL hTNF, compound 25 μM). For the same compound, the half-maximal inhibitory concentration (IC50) in the data set on hTNF-activated wt SFs [1] (hTNF at 1 ng/ml, read-out: IC50 (μM) CCL5 WT) is 0.09 µM; with hTNF-activated wt SFs [1] (hTNF at 1 ng/ml, read-out: IC50 (μM) CCL20 WT), 0.129 µM; in the data set on hTNFtg SFs [2] (setting [8]), < 0.01 µM; with hTNFtg SFs [2] (setting [9]), < 0.01 µM. Moreover, the activity at 10 µM turned out to be 0% with hTNFtg SFs [2] (setting [6]) and 24% in the data set with hTNFtg SFs [2] (setting [7]). In addition, the values for the activity at 25 µM in the data set with hTNFtg SFs [2] (setting [6]) and in the data set on hTNFtg SFs [2] (setting [7]) were 0% and 29%, respectively. The “EOTAXIN hTNFTg, percentage of level in untreated cells” value in the data set with hTNFtg SFs [3] came to 0%. The “KC hTNFTg, percentage of level in untreated cells” value in the data set with hTNFtg SFs [3] was found to be 35%. Further, in the data set with hTNFtg SFs [3], the “LIX hTNFTg, percentage of level in untreated cells” value is given as 1%. The “MCP1 hTNFTg, percentage of level in untreated cells” value in the data set with hTNFtg SFs [3] is 13.5%. Also, in the data set on hTNFtg SFs [3], the “MIP1β hTNFTg, percentage of level in untreated cells” value was determined as 12.5%. Moreover, the “Cell Toxicity” value in the data set on SFs and PMCs is >25 µM. Moreover, the “% of wound closure (mean ± SD)” value with hTNFtg SFs [4] was 63 ± 11.8%.

The values are drawn from patent publication US12686657B2, “Anti-inflammatory carboxamide derivatives” (BIOMEDCODE HELLAS SA, priority 2021, dated 2026).
